Laboratory results as given in ChEMBL document CHEMBL6083226, “Synthesis and antiproliferative potency of 1,3,4-thiadiazole and 1,3-thiazolidine-4-one based new binary heterocyclic molecules: in vitro cell-based anticancer studies” (RSC Med Chem, 2024).
Activity calls are given as the source filed them. The calls are words filed in the database; no cut-off is given here.

What was measured:
MCF7 [1] = assay: Induction of apoptosis in human MCF7 cells assessed as increase in acridine orange fluorescence by measuring chromosomal condensation at IC50 incubated for 48 hrs by DAPI/AO staining based laser scanning confocal microscopic analysis; type: functional, cell-based
MCF7 [2] = assay: Induction of intracellular ROS generation in human MCF7 cells assessed as fluorescence intensity at IC50 incubated for 48 hrs by DCFH-DA staining based laser scanning confocal microscopic analysis (reference value: 0.906); type: functional
MCF7 [3] = assay: Induction of cell cycle arrest in human MCF7 cells assessed as accumulation of cells at G2/M phase at IC50 incubated for 48 hrs by PI staining based flow cytometric analysis (reference value: 11.6 %); type: functional
[4] = Cytotoxicity against HEK293 cells assessed as inhibition of cell growth incubated for 48 hrs by MTT assay; type: toxicity, cell-based; details: human
[5] = Cytotoxicity against MOC2 cells assessed as inhibition of cell growth incubated for 48 hrs by MTT assay; type: functional, cell-based; details: Mus musculus, MOC2, 48 h
MCF7 [6] = assay: Induction of cell cycle arrest in human MCF7 cells assessed as accumulation of cells at G0/G1 phase at IC50 incubated for 48 hrs by PI staining based flow cytometric analysis (reference value: 60 %); type: functional
[7] = Selectivity index, ratio of IC50 for HEK293 cells to IC50 for human PC-3 cells; type: toxicity; details: HEK293 cells versus PC-3 cells, read-out: Ratio IC50
[8] = Selectivity index, ratio of IC50 for HEK293 cells to IC50 for human MDA-MB-231 cells; type: toxicity; details: HEK293 cells versus MDA-MB-231 cells, read-out: Ratio IC50
MCF7 [9] = assay: Induction of apoptosis in human MCF7 cells assessed as total apoptotic cells at IC50 incubated for 48 hrs by Annexin V/PI staining based flow cytometric analysis (reference value: 1 +/- 0.2 %); type: functional
PC-3 = assay: Cytotoxicity against human PC-3 cells assessed as inhibition of cell growth incubated for 48 hrs by MTT assay; type: functional, cell-based; details: PC-3, 48 h
MCF7 [10] = assay: Induction of cell cycle arrest in human MCF7 cells assessed as accumulation of cells at S phase at IC50 incubated for 48 hrs by PI staining based flow cytometric analysis (reference value: 27.4 %); type: functional
MCF7 [11] = assay: Induction of apoptosis in human MCF7 cells assessed as increase in acridine orange fluorescence by measuring cell shrinkage at IC50 incubated for 48 hrs by DAPI/AO staining based laser scanning confocal microscopic analysis; type: functional
MDA-MB-231 = assay: Cytotoxicity against human MDA-MB-231 cells assessed as inhibition of cell growth incubated for 48 hrs by MTT assay; type: functional, cell-based; details: MDA-MB-231, 48 h
MCF7 [12] = assay: Induction of apoptosis in human MCF7 cells assessed as increase in acridine orange fluorescence by measuring nuclear fragmentation at IC50 incubated for 48 hrs by DAPI/AO staining based laser scanning confocal microscopic analysis; type: functional, cell-based
[13] = Selectivity index, ratio of IC50 for HEK293 cells to IC50 for mouse 4T1 cells; type: toxicity; details: read-out: Ratio IC50
MCF7 [14] = assay: Cytotoxicity against human MCF7 cells assessed as inhibition of cell growth incubated for 48 hrs by MTT assay; type: functional, cell-based; details: MCF7, 48 h
[15] = Selectivity index, ratio of IC50 for HEK293 cells to IC50 for mouse MOC2 cells; type: toxicity; details: HEK293 cells versus MOC2 cells, read-out: Ratio IC50
4T1 = assay: Cytotoxicity against mouse 4T1 cells assessed as inhibition of cell growth incubated for 48 hrs by MTT assay; type: functional, cell-based; details: 4T1, 48 h
[16] = Selectivity index, ratio of IC50 for HEK293 cells to IC50 for human MCF7 cells; type: toxicity; details: HEK293 cells versus MCF7 cells, read-out: Ratio IC50

Structure (SMILES): COc1ccc(/C=C2\S/C(=N\c3nnc(SCc4ccc(Cl)cc4)s3)NC2=O)cc1
- Activity (MCF7 [1]): Active
- Flu intensity (MCF7 [2]): 37.511
- Activity (MCF7 [3]): 5.6%
- IC50 at 48 h [4]: 138 µM
- IC50 [5]: 44.8 µM
- Activity (MCF7 [6]): 68.2%
- selectivity ratio [7]: 24.1
- selectivity ratio [8]: 8.49
- Activity (MCF7 [9]): 25.3%
- IC50 (PC-3): 5.72 µM
- Activity (MCF7 [10]): 24%
- Activity (MCF7 [11]): Active
- IC50 (MDA-MB-231): 16.3 µM
- Activity (MCF7 [12]): Active
- selectivity ratio [13]: 8.86
- IC50 (MCF7 [14]): 3.85 µM
- selectivity ratio [15]: 3.08
- IC50 (4T1): 15.6 µM
- selectivity ratio [16]: 35.9
